Read-outs that look alike come from different tables or passages of the source.
Tests used:
[1] = target: SARS-CoV-2 3CL-protease (Severe acute respiratory syndrome coronavirus 2, UniProt P0DTD1); experiment: SARS-CoV-2 3C-like (3CL) protease fluorescence assay (FRET); format: biochemical; conditions: recombinant SARS-CoV-2 3CL-protease 10 nM, 30 min preincubation at RT, duplicate; read-out: FRET IC50
[2] = system: 229E human corona virus (hCoV); experiment: 229E live virus assay (CPE, ATPlite readout, MRC-5 cells); format: cell-based, hCoV-229E; conditions: Human coronavirus 229E, MRC5, 144 h, read-out: 229E EC50
[3] = MRC-5 cells, MOI 0.05, 6 days at 34° C., ATPlite, duplicate

SMILES	IC50 [1]	EC50 [2, 3]	EC50 [2]
CC(C)CC(C(=O)Nc1ccc(F)cc1Cl)C(=O)N1C[C@]2(C[C@H]1C#N)C(=O)Nc1ccccc12 (some centres unmarked) [Example 9]	> 1000 nM	> 1000 nM	
N#C[C@@H]1C[C@@]2(CN1C(=O)NC1CC1)C(=O)Nc1ccccc12 [Example 48]	> 1000 nM		> 1000 nM
N#C[C@@H]1C[C@@]2(CN1C(=O)C(Cc1ccccc1)C(=O)Nc1cc(F)cc(F)c1)C(=O)Nc1ccccc12 (some centres unmarked) [Example 23]	100 to 1000 nM	> 1000 nM	
N#C[C@@H]1C[C@@]2(CN1CC1CCCCC1)C(=O)Nc1ccccc12 [Example 39]	> 1000 nM	> 1000 nM	
N#C[C@@H]1C[C@@]2(CN1C(=O)C(F)(Cc1ccccc1)C(=O)Nc1ccccc1)C(=O)Nc1ccccc12 (some centres unmarked) [Example 27]	> 1000 nM	> 1000 nM	
CC(C(=O)Nc1ccccc1)C(=O)N1C[C@]2(C[C@H]1C#N)C(=O)Nc1ccccc12 (some centres unmarked) [Example 15]	> 1000 nM	> 1000 nM	
CC(C)CC(C(=O)Nc1ccccc1)C(=O)N1C[C@]2(C[C@H]1C#N)C(=O)Nc1ccccc12 (some centres unmarked) [Example 1]	> 1000 nM		> 1000 nM
N#C[C@@H]1C[C@@]2(CN1C(=O)C(Cc1ccccc1)C(=O)Nc1ccc3ccccc3c1)C(=O)Nc1ccccc12 (some centres unmarked) [Example 24]	100 to 1000 nM	> 1000 nM	
N#C[C@@H]1C[C@@]2(CN1C(=O)[C@@H](Cc1ccccc1)C(=O)Nc1cc(F)cc(F)c1)C(=O)Nc1ccccc12 [Example 25]	100 to 1000 nM	> 1000 nM	
CC(C)C(=O)N1C[C@]2(C[C@H]1C#N)C(=O)Nc1ccccc12 [Example 40]	> 1000 nM	> 1000 nM	
CC(C)CC(C(=O)Nc1ccc(-c2ccccc2)cc1)C(=O)N1C[C@]2(C[C@H]1C#N)C(=O)Nc1ccccc12 (some centres unmarked) [Example 14]	> 1000 nM	> 1000 nM	
N#C[C@@H]1C[C@@]2(CN1S(=O)(=O)c1ccc(Oc3ccccc3)cc1)C(=O)Nc1ccccc12 [Example 35]	> 1000 nM	> 1000 nM	
CC(C)C[C@H](C(=O)Nc1cc(F)cc(F)c1)C(=O)N1C[C@]2(C[C@H]1C#N)C(=O)Nc1ccccc12 (single isomer, unassigned) [Example 12]	> 1000 nM	> 1000 nM	
CN(C(=O)C(Cc1ccccc1)C(=O)N1C[C@]2(C[C@H]1C#N)C(=O)Nc1ccccc12)c1ccccc1 (some centres unmarked) [Example 22]	> 1000 nM	> 1000 nM	
N#C[C@@H]1C[C@@]2(CN1C(=O)Nc1ccccc1)C(=O)Nc1ccccc12 [Example 50]	> 1000 nM	> 1000 nM	
N#C[C@@H]1C[C@@]2(CN1C(=O)c1ccccc1)C(=O)Nc1ccccc12 [Example 30]	> 1000 nM	100 to 1000 nM	
N#C[C@@H]1C[C@@]2(CN1S(=O)(=O)c1ncc(-c3ccc(F)cc3)s1)C(=O)Nc1ccccc12 [Example 33]	> 1000 nM	> 1000 nM	
N#C[C@@H]1C[C@@]2(CN1C(=O)NCc1ccccc1)C(=O)Nc1ccccc12 [Example 51]	> 1000 nM	100 to 1000 nM	
CC(C)C[C@@H](C(=O)Nc1cc(F)cc(F)c1)C(=O)N1C[C@]2(C[C@H]1C#N)C(=O)Nc1ccccc12 (single isomer, unassigned) [Example 11]	> 1000 nM	> 1000 nM	
CC(C)CC(C(=O)Nc1ccc2ccccc2c1)C(=O)N1C[C@]2(C[C@H]1C#N)C(=O)Nc1ccccc12 (some centres unmarked) [Example 5]	> 1000 nM	100 to 1000 nM	

SMILES	IC50 [1]	EC50 [2, 3]	EC50 [2]
CC(C)(C)C(=O)N1C[C@]2(C[C@H]1C#N)C(=O)Nc1ccccc12 [Example 41]	> 1000 nM	> 1000 nM	
CC(C)CC(C(=O)NC1CC1)C(=O)N1C[C@]2(C[C@H]1C#N)C(=O)Nc1ccccc12 (some centres unmarked) [Example 3]	> 1000 nM	100 to 1000 nM	
Cc1ccc(S(=O)(=O)N2C[C@]3(C[C@H]2C#N)C(=O)Nc2ccccc23)cc1 [Example 32]	> 1000 nM		> 1000 nM
N#C[C@@H]1C[C@@]2(CN1C(=O)NC1CCCC1)C(=O)Nc1ccccc12 [Example 49]	> 1000 nM	100 to 1000 nM	
CC(C)CC(C(=O)Nc1cccc(-c2ccccc2)c1)C(=O)N1C[C@]2(C[C@H]1C#N)C(=O)Nc1ccccc12 (some centres unmarked) [Example 13]	> 1000 nM	> 1000 nM	
N#C[C@@H]1C[C@@]2(CN1C(=O)Nc1ccc3cccnc3c1)C(=O)Nc1ccccc12 [Example 52]	> 1000 nM	> 1000 nM	
CC(C)CC(F)(C(=O)N(C)c1ccccc1)C(=O)N1C[C@]2(C[C@H]1C#N)C(=O)Nc1ccccc12 (some centres unmarked) [Example 19]	> 1000 nM	> 1000 nM	
N#C[C@@H]1C[C@@]2(CN1C(=O)NC1CCCCC1)C(=O)Nc1ccccc12 [Example 38]	> 1000 nM	< 100 nM	
N#C[C@@H]1C[C@@]2(CN1C(=O)c1ccc(-c3ccccc3)cc1)C(=O)Nc1ccccc12 [Example 36]	> 1000 nM	> 1000 nM	
N#C[C@@H]1C[C@@]2(CN1C(=O)c1ccc3cccnc3c1)C(=O)Nc1ccccc12 [Example 44]	> 1000 nM	> 1000 nM	
CC(C)CC(C(=O)Nc1c(F)cccc1Cl)C(=O)N1C[C@]2(C[C@H]1C#N)C(=O)Nc1ccccc12 (some centres unmarked) [Example 10]	> 1000 nM	> 1000 nM	
CC(C(=O)N(C)c1ccccc1)C(=O)N1C[C@]2(C[C@H]1C#N)C(=O)Nc1ccccc12 (some centres unmarked) [Example 16]	> 1000 nM	100 to 1000 nM	
N#C[C@@H]1C[C@@]2(CN1C(=O)C1CC1)C(=O)Nc1ccccc12 [Example 42]	> 1000 nM	> 1000 nM	
CC(=O)N1C[C@]2(C[C@H]1C#N)C(=O)Nc1ccccc12 [Example 29]	> 1000 nM	100 to 1000 nM	
CC(C)NC(=O)N1C[C@]2(C[C@H]1C#N)C(=O)Nc1ccccc12 [Example 47]	> 1000 nM	> 1000 nM	
N#C[C@@H]1C[C@@]2(CN1C(=O)[C@H](Cc1ccccc1)C(=O)Nc1cc(F)cc(F)c1)C(=O)Nc1ccccc12 [Example 26]	> 1000 nM	> 1000 nM	
Cc1nc(-c2ccc(S(=O)(=O)N3C[C@]4(C[C@H]3C#N)C(=O)Nc3ccccc34)s2)cs1 [Example 34]	> 1000 nM	> 1000 nM	
CC(C)CC(C(=O)Nc1cc(F)ccc1F)C(=O)N1C[C@]2(C[C@H]1C#N)C(=O)Nc1ccccc12 (some centres unmarked) [Example 6]	> 1000 nM	100 to 1000 nM	
CC(C(=O)Nc1cc(F)cc(F)c1)C(=O)N1C[C@]2(C[C@H]1C#N)C(=O)Nc1ccccc12 (some centres unmarked) [Example 17]	> 1000 nM	> 1000 nM	
CC(C)CC(C(=O)N1C[C@]2(C[C@H]1C#N)C(=O)Nc1ccccc12)c1ccc(NC(=O)c2cc3c(F)cccc3[nH]2)cn1 (some centres unmarked) [Example 31]	> 1000 nM	> 1000 nM	

Source: US20230159546A1, “NOVEL SPIROPYRROLIDINE DERIVED ANTIVIRAL AGENTS” (Enanta Pharmaceuticals, Inc., priority 2021, published 2023)
